Counter-ions that a name gives are not always drawn.
Columns and labels:
[1] = animal experimental model (Miner et al.; Costall et al. 1986); cited from earlier work
[2] = double-blind clinical trial (Loisy et al. 1985); cited from earlier work
[3] = molecular target: 5-HT M-receptor; details: 5-HT receptor antagonism; literature values (Fozard et al.); cited from earlier work
[4] = test system: Von Bezold-Jarisch Reflex induced by 5-HT; assay: Von Bezold-Jarisch Reflex induced by 5-HT injected intravenously into the rat; type: in vivo
Description: The activity of these compounds against 5-HT can be assessed in vivo by measurement of the effect of the compound on the Von Bezold-Jarisch Reflex induced by 5-HT injected intravenously into the rat (see Paintal A. S., Physiol. Rev., 53, 159-227 […]; J. R. Fozard, Naunyn-Schmiedeberg's Arch. Pharmacol., 326, (1984) 36-44). The transient cardiac slowing arises from an increased afferent vagus activity arising from stimulation by 5-HT of sensory afferent fibers in and around the heart.

[5] = slow intravenous injection, 10 mg; cited from earlier work
[6] = doses of 0.01-0.1 mg/kg given intravenously
[7] = doses of 0.25-1 mg/kg given orally

SMILES	prevention of nausea and vomiting induced by cancer chemotherapeutic agents [1]	pA2 [3]	other results
CN1[C@@H]2CC[C@H]1C[C@@H](OC(=O)c1cc(Cl)cc(Cl)c1)C2 [3,5-dichlorobenzoyltropine]	highly effective		treatment of the acute migraine attack [2]: proved an effective treatment
CN1[C@@H]2CC[C@H]1C[C@@H](OC(=O)c1c[nH]c3ccccc13)C2 [(3α-tropanyl)-lH-indole-3-carboxylic acid ester]	highly effective		
CN1[C@@H]2CC[C@H]1C[C@@H](OC(=O)c1ccccc1)C2 [benzoyltropine]		7.2	
Cc1cc(C)cc(C(=O)O[C@@H]2C[C@@H]3C[C@@H]4C[C@H](C2)N3CC4=O)c1 [endo-8-(3,5-dimethylbenzoyloxy)hexahydro-2,6-methano-2H-quinolizin3(4H)-one]			suppression of the Von Bezold-Jarisch Reflex response [4, 6]: suppressed the response dose-dependently; suppression of the Von Bezold-Jarisch Reflex response [4, 7]: suppressed the response dose-dependently
O=C(O[C@@H]1C[C@@H]2C[C@@H]3C[C@H](C1)N2CC3=O)c1c[nH]c2ccccc12 [endo-hexahydro-8-(3-indolylcarbonyloxy)-2,6-methano-2H-quinolizin-3(4H)onehydrochloride]			suppression of the Von Bezold-Jarisch Reflex response [4, 6]: suppressed the response dose-dependently; suppression of the Von Bezold-Jarisch Reflex response [4, 7]: suppressed the response dose-dependently
CCN(CC)CCNC(=O)c1cc(Cl)c(N)cc1OC [metoclopramide]	highly effective	7.2	relief of an acute migraine attack [5]: immediate relief
COC(=O)[C@H]1[C@@H](OC(=O)c2ccccc2)C[C@@H]2CC[C@H]1N2 [nor (-) cocaine]		7.7	
CN1[C@@H]2CC[C@H]1C[C@H](OC(=O)c1ccccc1)C2 [pseudotropyl benzoate]		7.0	

From patent US4906755A, “Esters of hexahydro-8-hydroxy-2,6-methano-2H-quinolizin-3-(4H)-one and related compounds” (Merrell Dow Pharmaceuticals Inc., priority 1989, dated 1990)
